Measured values published in the supplement of paper PMC10307832.

Tests used:
Assay in all cases: relative viability (nuclei count vs DMSO), 5 days (fraction); higher = more cells survive
[1] = compound: C1=CC=C(C(=C1)C2=CC=C(C=C2)C3=CSC4=C3C(=C(C(=O)N4)C#N)O)O + CC(=O)Nc1cccc(-n2c(=O)n(C3CC3)c(=O)c3c(Nc4ccc(I)cc4F)n(C)c(=O)c(C)c32)c1 [Trametinib] (partner 0.02 µM)
In short: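 After 5 days of treatment, lung cancer cells in 1536-well plates were fixed and stained in a single step (final 0.05% Triton X-100, 1% formaldehyde, 1 ug/ml Hoechst) and their nuclei counted on 4× images. Treatment had been applied by pin tool the day after seeding as one drug alone or as a fixed anchor-drug dose with five library-drug doses (not always all listed) in √10 steps. Relative viability is the nuclei count of treated wells divided by that of vehicle wells, and values are medians of duplicate plates.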

TGX 221 = compound: CC1=CN2C(=O)C=C(N=C2C(=C1)C(C)NC3=CC=CC=C3)N4CCOCC4 [TGX 221]
In short: (§1)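 Viability was defined as treated-well nuclei divided by vehicle-well nuclei, with the median taken over replicate plates. Cells from lung cancer lines sat overnight at 37 °C in 1536-well plates, received five √10-spaced library-drug doses by pinning on vehicle-anchored plates, and grew 5 days without medium change before one-step fixation, permeabilisation and Hoechst staining, 4× imaging and MetaXpress nuclear counts. Only plates with control CV under 25% and at least one doubling were kept.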

Ricolinostat = compound: O=C(CCCCCCNC(=O)c1cnc(N(c2ccccc2)c2ccccc2)nc1)NO [Ricolinostat]
In short: as §1

[2] = compound: C1=CC=C(C(=C1)C2=CC=C(C=C2)C3=CSC4=C3C(=C(C(=O)N4)C#N)O)O
In short: as §1

Cell Line	relative viability ([1]; first compound 0.08 µM)	relative viability ([1]; first compound 0.253 µM)	relative viability ([1]; first compound 0.8 µM)	relative viability ([1]; first compound 2.53 µM)	relative viability ([1]; first compound 8 µM)	relative viability (TGX 221; 0.08 µM)	relative viability (TGX 221; 0.253 µM)	relative viability (TGX 221; 0.8 µM)	relative viability (TGX 221; 2.53 µM)	relative viability (TGX 221; 8 µM)	relative viability (Ricolinostat; 0.08 µM)	relative viability (Ricolinostat; 0.253 µM)	relative viability (Ricolinostat; 0.8 µM)	relative viability (Ricolinostat; 2.53 µM)	relative viability ([2]; 0.08 µM)	relative viability ([2]; 0.253 µM)	relative viability ([2]; 0.8 µM)	relative viability ([2]; 2.53 µM)	relative viability ([2]; 8 µM)
NCI-H1734	0.57	0.666	0.728	0.669	0.559	0.91	0.892	1	0.934	0.9	0.81	1.03	0.935	0.894	0.833	0.992	0.971	1.01	0.753
NCI-H1755	0.758	0.775	0.8	0.862	0.797	0.954	0.971	0.972	0.915	0.828	0.885	0.961	0.978	1.03	1.06	1.08	0.991	1.05	0.923
NCI-H1793	0.354	0.738	0.428	0.446	0.34	0.858	0.628	0.748	0.574	0.668	–	0.924	0.905	0.898	0.786	1.17	0.9	0.834	0.945
NCI-H1915	0.304	0.303	0.505	0.314	0.316	0.937	0.985	0.993	0.871	0.994	0.899	0.968	0.976	0.862	0.967	1.06	0.892	1.05	0.869
NCI-H1944	0.459	0.396	0.357	0.423	0.434	0.82	0.915	0.911	0.883	0.851	0.835	1.03	0.876	0.692	0.902	1.05	0.94	0.965	0.844
NCI-H1975	0.348	0.412	0.337	0.311	0.345	0.911	0.866	0.998	0.844	0.785	0.928	0.895	0.803	0.872	0.892	0.949	0.932	0.887	0.772
NCI-H1993	0.479	0.502	0.495	0.565	0.542	0.878	0.762	0.886	0.681	0.877	0.726	1	0.999	1.04	0.892	1.17	0.897	0.87	0.83
NCI-H2009	0.226	0.268	0.333	0.249	0.295	0.967	0.987	1.01	0.999	0.868	0.861	0.929	0.905	0.75	0.971	1.01	0.987	1.01	0.884
NCI-H2023	0.364	0.584	0.708	0.535	0.466	0.901	0.89	0.927	0.889	0.845	0.752	1.01	0.931	0.821	0.996	1.04	1.02	1.01	0.722
NCI-H2085	0.55	0.772	0.615	0.484	0.598	1.01	0.933	0.863	0.644	0.585	–	0.986	0.972	0.88	0.905	1.13	0.982	0.964	0.917
NCI-H2087	0.283	0.285	0.206	0.208	0.202	1.19	1.15	1.12	1	0.988	0.912	1.02	0.974	0.699	1.02	1.21	1.08	1.05	0.637
NCI-H2126	0.611	0.51	0.571	0.54	0.476	0.945	0.989	0.968	0.837	0.944	0.718	1.01	0.989	0.969	0.943	1.09	1	0.963	0.979
NCI-H2170	0.87	0.979	0.865	0.986	0.778	0.959	0.958	0.989	0.93	0.993	0.904	0.939	1.01	1.04	1.01	0.961	0.953	0.995	0.804
NCI-H2228	0.342	0.459	0.544	0.458	0.465	0.831	0.97	1.04	0.846	0.996	0.99	0.981	0.944	0.921	1.08	1.1	1.19	1.07	0.782
NCI-H2342	0.754	0.88	0.794	0.681	0.68	0.912	0.997	0.947	1.01	0.945	0.768	0.912	0.916	1.05	0.971	1.15	0.926	0.953	0.795
NCI-H2347	0.287	0.304	0.243	0.255	0.286	0.898	0.987	0.986	0.88	0.851	0.911	0.964	0.994	0.92	0.996	1.15	0.989	1.07	0.916
NCI-H2405	0.55	–	0.639	0.601	0.574	0.949	0.991	0.968	0.954	0.889	0.878	1	1.01	0.802	0.977	0.995	0.927	0.958	0.955
